The target of this experiment is Factor D (Homo sapiens (Human), UniProt P00746). The experiment in a line: biochemical. The class given is biochemical. The following applies: read-out: IC50.

As usually defined, the IC50 is the concentration that gives 50% inhibition.

Chain of Factor D (P00746 26-253): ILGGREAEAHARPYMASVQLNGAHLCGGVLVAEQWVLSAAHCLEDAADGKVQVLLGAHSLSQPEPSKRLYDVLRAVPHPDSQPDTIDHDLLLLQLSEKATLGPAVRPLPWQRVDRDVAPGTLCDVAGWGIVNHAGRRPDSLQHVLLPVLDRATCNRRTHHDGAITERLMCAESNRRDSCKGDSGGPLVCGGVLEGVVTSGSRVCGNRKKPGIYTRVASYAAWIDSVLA

Regarding `COC(=O)c1cc(Cl)c(F)c(CNC(=O)[C@@H]2C[C@@H](F)CN2C(=O)Nc2cn(C(N)=O)c3ccccc23)c1` [Example 244, 3-({[(2S,4R)-1-(1-Carbamoyl-1H-indol-3-ylcarbamoyl)-4-fluoro-pyrrolidine-2-carbonyl]-amino}-methyl)-5-chloro-4-fluoro-benzoic acid methyl ester], the IC50 amounted to 17 nM.

With `COC[C@@H](NC(=O)[C@@H]1[C@H]2C[C@H]2CN1C(=O)Nc1cn(C(N)=O)c2ccccc12)c1cccc(Cl)c1F` [Example 245, (1S,2S,5R)-3-Aza-bicyclo[3.1.0]hexane-2,3-dicarboxylic acid 3-[(1-carbamoyl-1H-indol-3-yl)-amide] 2-{[(S)-1-(3-chloro-2-fluoro-phenyl)-2-methoxy-ethyl]-amide}], the IC50 turned out to be 1050 nM.

On to `NC(=O)n1cc(NC(=O)N2C[C@H](F)C[C@H]2C(=O)NC(C(=O)O)c2cccc(Cl)c2)c2ccccc21` (stereo partly drawn) [Example 246, {[(2S,4R)-1-(1-Carbamoyl-1H-indol-3-ylcarbamoyl)-4-fluoro-pyrrolidine-2-carbonyl]-amino}-(3-chloro-phenyl)-acetic acid], for which the IC50 amounted to 2000 nM.

Take `NC(=O)n1cc(NC(=O)N2[C@@H]3C[C@@H]3C[C@H]2C(=O)Nc2cncc(Cl)c2)c2ccccc21` [Example 247, (1R,3S,5R)-2-Aza-bicyclo[3.1.0]hexane-2,3-dicarboxylic acid 2-[(1-carbamoyl-1H-indol-3-yl)-amide] 3-[(5-chloro-pyridin-3-yl)-amide]]: the IC50 came to 400 nM.

`CN(C)C[C@@H](NC(=O)[C@@H]1C[C@@H](F)CN1C(=O)Nc1cn(C(N)=O)c2ccccc12)c1cccc(Cl)c1F` [Example 248, (2S,4R)-4-Fluoro-pyrrolidine-1,2-dicarboxylic acid 1-[(1-carbamoyl-1H-indol-3-yl)-amide] 2-{[(S)-1-(3-chloro-2-fluoro-phenyl)-2-dimethylamino-ethyl]-amide}]: the IC50 was 119 nM.

On to `NC(=O)n1cc(NC(=O)N2C[C@H](F)C[C@H]2C(=O)NCc2cc(C(=O)N3CCOCC3)cc(Cl)c2F)c2ccccc21` [Example 250, (2S,4R)-4-Fluoro-pyrrolidine-1,2-dicarboxylic acid 1-[(1-carbamoyl-1H-indol-3-yl)-amide] 2-[3-chloro-2-fluoro-5-(morpholine-4-carbonyl)-benzylamide]], for which the IC50 came out at 549 nM.

Regarding `CCN(CC)c1cc(Cl)c(F)c(CNC(=O)[C@@H]2C[C@@H](F)CN2C(=O)Nc2cn(C(N)=O)c3ccccc23)c1` [Example 252, (2S,4R)-4-Fluoro-pyrrolidine-1,2-dicarboxylic acid 1-[(1-carbamoyl-1H-indol-3-yl)-amide] 2-(3-chloro-5-diethylamino-2-fluoro-benzylamide)], the IC50 is 114 nM.

As for `NC(=O)n1cc(NC(=O)N2CCS[C@H]2C(=O)N[C@H](CO)c2cccc(Cl)c2F)c2ccccc21` [Example 253, (S)-Thiazolidine-2,3-dicarboxylic acid 3-[(1-carbamoyl-1H-indol-3-yl)-amide] 2-{[(S)-1-(3-chloro-2-fluoro-phenyl)-2-hydroxy-ethyl]-amide}], the IC50 came out at 1070 nM.

Turning to `COC1CN(C(=O)c2cc(Cl)c(F)c(CNC(=O)[C@@H]3C[C@@H](F)CN3C(=O)Nc3cn(C(N)=O)c4ccccc34)c2)C1` [Example 255, (2S,4R)-4-Fluoro-pyrrolidine-1,2-dicarboxylic acid 1-[(1-carbamoyl-1H-indol-3-yl)-amide] 2-[3-chloro-2-fluoro-5-(3-methoxy-azetidine-1-carbonyl)-benzylamide]], the IC50 is 434 nM.

In the case of `N#C[C@@H]1C[C@@H](C(=O)Nc2cccc(OC(F)(F)F)c2)N(C(=O)Nc2cn(C(N)=O)c3ccccc23)C1` [Example 256, (2S,4R)-4-cyano-pyrrolidine-1,2-dicarboxylic acid 1-[(1-carbamoyl-1H-indol-3-yl)-amide]2-[(3-trifluoromethoxy-phenyl)-amide]], the IC50 was determined as 4000 nM.

With `NC(=O)n1cc(NC(=O)N2CC[C@H](O)[C@H]2C(=O)NCc2cccc(Cl)c2)c2ccccc21` [Example 257, (2S,3S)-3-Hydroxy-pyrrolidine-1,2-dicarboxylic acid 1-[(1-carbamoyl-1H-indol-3-yl)-amide] 2-(3-chloro-benzylamide)], the IC50 was found to be 3950 nM.

Turning to `NC(=O)n1cc(NC(=O)N2[C@@H]3C[C@@H]3C[C@H]2C(=O)NCc2ccccc2)c2ccccc21` [Example 258, (1R,3S,5R)-2-Aza-bicyclo[3.1.0]hexane-2,3-dicarboxylic acid 3-benzylamide 2-[(1-carbamoyl-1H-indol-3-yl)-amide]], the IC50 came out at 78 nM.

Turning to `CC(=O)n1cc(NC(=O)N2C[C@@H](CO)C[C@H]2C(=O)NCc2cccc(Cl)c2F)c2ccccc21` [Example 260, (2S,4S)-4-Hydroxymethyl-pyrrolidine-1,2-dicarboxylic acid 1-[(1-acetyl-1H-indol-3-yl)-amide] 2-(3-chloro-2-fluoro-benzylamide)], the IC50 worked out at 200 nM.

Regarding `NC(=O)n1cc(NC(=O)N2C3CC3C[C@H]2C(=O)NCc2cccc(C(F)(F)F)c2F)c2ccccc21` (stereo partly drawn) [Example 261, (1R,3S,5R)-2-Aza-bicyclo[3.1.0]hexane-2,3-dicarboxylic acid 2-[(1-carbamoyl-1H-indol-3-yl)-amide] 3-(2-fluoro-3-trifluoromethyl-benzylamide)], the IC50 turned out to be 75 nM.

With `COc1ccc(F)c(F)c1CNC(=O)[C@@H]1SCCN1C(=O)Nc1cn(C(N)=O)c2ccccc12` [Example 262, (S)-Thiazolidine-2,3-dicarboxylic acid 3-[(1-carbamoyl-1H-indol-3-yl)-amide] 2-(2,3-difluoro-6-methoxy-benzylamide)], the IC50 was found to be 200 nM.

With `NC(=O)n1cc(NC(=O)N2CCS[C@H]2C(=O)NCc2cnc(Cl)s2)c2ccccc21` [Example 263, (S)-Thiazolidine-2,3-dicarboxylic acid 3-[(1-carbamoyl-1H-indol-3-yl)-amide] 2-[(2-chloro-thiazol-5-ylmethyl)-amide]], the IC50 is 400 nM.

Take `NC(=O)n1cc(NC(=O)N2CCS[C@H]2C(=O)NCc2cccc(Cl)c2F)c2cc(F)ccc21` [Example 264, (S)-Thiazolidine-2,3-dicarboxylic acid 3-[(1-carbamoyl-5-fluoro-1H-indol-3-yl)-amide] 2-(3-chloro-2-fluoro-benzylamide)]: the IC50 came to 10 nM.

Turning to `NC(=O)n1cc(NC(=O)N2CCS[C@H]2C(=O)Nc2cccc(OC(F)(F)F)c2)c2ccccc21` [Example 267, (S)-Thiazolidine-2,3-dicarboxylic acid 3-[(1-carbamoyl-1H-indol-3-yl)-amide] 2-[(3-trifluoromethoxy-phenyl)-amide]], the IC50 amounted to 83 nM.

Take `C=CCOc1ccc2c(c1)c(NC(=O)N1[C@@H]3C[C@@H]3C[C@H]1C(=O)NCc1cccc(Cl)c1F)cn2C(N)=O` [Example 268, (1R,3S,5R)-2-Aza-bicyclo[3.1.0]hexane-2,3-dicarboxylic acid 2-[(5-allyloxy-1-carbamoyl-1H-indol-3-yl)-amide] 3-(3-chloro-2-fluoro-benzylamide)]: the IC50 came out at 8 nM.

On to `Cc1ccc2c(NC(=O)N3CCC[C@H]3C(=O)Nc3cccc(OC(F)(F)F)c3)cn(C(N)=O)c2c1` [Example 269], for which the IC50 came out at 1600 nM.

As to `CNC(=O)n1cc(NC(=O)N2[C@@H]3C[C@@H]3C[C@H]2C(=O)N[C@H](COC)c2cccc(Cl)c2F)c2ccccc21` [Example 270, (1R,3S,5R)-2-Aza-bicyclo[3.1.0]hexane-2,3-dicarboxylic acid 3-{[(S)-1-(3-chloro-2-fluoro-phenyl)-2-methoxy-ethyl]-amide} 2-[(1-methylcarbamoyl-1H-indol-3-yl)-amide]], the IC50 turned out to be 54 nM.

On to `CC(=O)n1cc(NC(=O)N2CCC[C@H]2C(=O)Nc2cccc(OC(F)(F)F)c2)c2ccccc21` [Example 271, (S)-Pyrrolidine-1,2-dicarboxylic acid 1-[(1-acetyl-1H-indol-3-yl)-amide] 2-[(3-trifluoromethoxy-phenyl)-amide]], for which the IC50 came out at 629 nM.

As for `NC(=O)n1cc(NC(=O)N2[C@@H](c3ccccc3)CC[C@H]2C(=O)Nc2cccc(OC(F)(F)F)c2)c2ccccc21` [Example 273, (2S,5R)-5-Phenyl-pyrrolidine-1,2-dicarboxylic acid 1-[(1-carbamoyl-1H-indol-3-yl)-amide] 2-[(3-trifluoromethoxy-phenyl)-amide]], the IC50 was 2260 nM.

`NC(=O)n1cc(NC(=O)N2C[C@H](F)C[C@H]2C(=O)Nc2cccc(OC(F)(F)F)c2F)c2ccccc21` [Example 274, (2S,4R)-4-Fluoro-pyrrolidine-1,2-dicarboxylic acid 1-[(1-carbamoyl-1H-indol-3-yl)-amide] 2-[(2-fluoro-3-trifluoromethoxy-phenyl)-amide]]: the IC50 was 14 nM.

For the compound `CC(=O)n1cc(NC(=O)N2[C@H](C(=O)NCc3cccc(Cl)c3F)C[C@@]3(CO)C[C@@H]23)c2ccccc21` [Example 275, (1R,3S,5S)-5-Hydroxymethyl-2-aza-bicyclo[3.1.0]hexane-2,3-dicarboxylic acid 2-[(1-acetyl-1H-indol-3-yl)-amide] 3-(3-chloro-2-fluoro-benzylamide)], the IC50 was 30 nM.

`COC(=O)COc1ccc2c(NC(=O)N3[C@@H]4C[C@@H]4C[C@H]3C(=O)Nc3cccc(OC(F)(F)F)c3)cn(C(N)=O)c2c1` [Example 276, (1-Carbamoyl-3-{[(1R,3S,5R)-3-(3-trifluoromethoxy-phenylcarbamoyl)-2-aza-bicyclo[3.1.0]hexane-2-carbonyl]-amino}-1H-indol-6-yloxy)-acetic acid methyl ester]: the IC50 turned out to be 1310 nM.

As to `CN(C)C(=O)c1cc(Cl)c(F)c(CNC(=O)[C@@H]2C[C@@H](F)CN2C(=O)Nc2cn(C(N)=O)c3ccccc23)c1` [Example 277, (2S,4R)-4-Fluoro-pyrrolidine-1,2-dicarboxylic acid 1-[(1-carbamoyl-1H-indol-3-yl)-amide] 2-(3-chloro-5-dimethylcarbamoyl-2-fluoro-benzylamide)], the IC50 is 627 nM.

As for `Cn1nc(C(C)(C)C)cc1NC(=O)[C@@H]1CCCN1C(=O)Nc1cn(C(N)=O)c2ccccc12` [Example 279, (S)-Pyrrolidine-1,2-dicarboxylic acid 2-[(5-tert-butyl-2-methyl-2H-pyrazol-3-yl)-amide] 1-[(1-carbamoyl-1H-indol-3-yl)-amide]], the IC50 turned out to be 2900 nM.

The record behind these values is patent publication US9085555B2, “Complement pathway modulators and uses thereof” (priority 2011, dated 2015).
